Experiments:
CD73 [1] = molecular target: T1, CD73 (Homo sapiens (Human), UniProt P21589); test: MDA-MB-231 Cell Based CD73 Activity Assay (DMEM); details: MDA-MB-231-GFP cells, DMEM medium with 10% human plasma, 200 uM AMP
CD73 [2] = molecular target: T1, CD73; assay type: biochemical; details: 1 mM NaH2PO4 in enzyme buffer, CD73 0.3 nM, AMP 15 uM

T1 sequence (P21589 27-574): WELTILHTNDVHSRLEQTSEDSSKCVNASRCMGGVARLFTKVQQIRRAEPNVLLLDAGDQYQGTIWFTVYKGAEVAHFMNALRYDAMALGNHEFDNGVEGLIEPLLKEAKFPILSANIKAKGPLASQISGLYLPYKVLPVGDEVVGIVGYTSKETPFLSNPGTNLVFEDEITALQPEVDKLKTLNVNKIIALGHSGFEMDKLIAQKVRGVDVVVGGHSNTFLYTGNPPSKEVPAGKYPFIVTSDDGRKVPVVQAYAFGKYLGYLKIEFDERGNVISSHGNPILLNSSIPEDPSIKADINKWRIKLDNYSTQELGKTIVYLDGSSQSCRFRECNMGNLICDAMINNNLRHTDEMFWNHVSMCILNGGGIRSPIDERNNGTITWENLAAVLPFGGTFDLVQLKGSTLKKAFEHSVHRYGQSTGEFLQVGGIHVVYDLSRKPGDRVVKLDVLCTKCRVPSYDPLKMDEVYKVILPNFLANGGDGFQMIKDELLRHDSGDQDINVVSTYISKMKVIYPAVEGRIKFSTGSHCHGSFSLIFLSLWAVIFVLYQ

| SMILES | EC50 (CD73 [1]) | IC50 (CD73 [2]) |
| --- | --- | --- |
| N#Cc1ccc([C@H]2C[C@@H]2c2cc(-c3c[nH]c(=O)[nH]c3=O)nn3c(F)cnc23)cc1F [Example 415, 4-((1S,2S)-2-(6-(2,4-dioxo-1,2,3,4-tetrahydropyrimidin-5-yl)-3-fluoroimidazo[1,2-b]pyridazin-8-yl)cyclopropyl)-2-fluorobenzonitrile] | 3.93 nM | 0.79 nM |
| O=c1[nH]cc(-c2cc([C@H]3C[C@@H]3c3ccc4cnn(CC(F)(F)F)c4c3)c3ncnn3n2)c(=O)[nH]1 [Example 431, 5-(8-((1S,2S)-2-(1-(2,2,2-trifluoroethyl)-1H-indazol-6-yl)cyclopropyl)-[1,2,4]triazolo[1,5-b]pyridazin-6-yl)pyrimidine-2,4(1H,3H)-dione] | 0.13 nM | 0.15 nM |
| CC1(C)CN(c2cc(-c3c[nH]c(=O)[nH]c3=O)nn3cc(C4(C(F)(F)F)CC4)nc23)CC1(F)F [Example 441, 5-(8-(3,3-difluoro-4,4-dimethylpyrrolidin-1-yl)-2-(1-(trifluoromethyl)cyclopropyl)imidazo[1,2-b]pyridazin-6-yl)pyrimidine-2,4(1H,3H)-dione] | 239 nM | 46.3 nM |
| N#Cc1ccc(OC2CN(c3cc(-c4c[nH]c(=O)[nH]c4=O)nn4ccnc34)CC2(F)F)cc1 (stereo not drawn) [Example 231, 4-((1-(6-(2,4-dioxo-1,2,3,4-tetrahydropyrimidin-5-yl)imidazo[1,2-b]pyridazin-8-yl)-4,4-difluoropyrrolidin-3-yl)oxy)benzonitrile] | 2 nM | 1.62 nM |
| O=c1[nH]cc(-c2cc(N3CC(F)C4(CC4)C3)n3nccc3n2)c(=O)[nH]1 (stereo not drawn) [Example 147, 5-(7-(7-fluoro-5-azaspiro[2.4]heptan-5-yl)pyrazolo[1,5-a]pyrimidin-5-yl)pyrimidine-2,4(1H,3H)-dione] | 96.1 nM | 39 nM |
| O=c1[nH]cc(-c2cc([C@H]3C[C@@H]3c3ccc(Cl)cn3)c3nccn3n2)c(=O)[nH]1 (racemic) [Example 576, 5-(8-((1S,2S)-2-(5-chloropyridin-2-yl)cyclopropyl)imidazo[1,2-b]pyridazin-6-yl)pyrimidine-2,4(1H,3H)-dione] | 6.9 nM | 2.05 nM |
| N#Cc1cc(F)c([C@H]2C[C@@H]2c2cc(-c3c[nH]c(=O)[nH]c3=O)nn3ccnc23)c(F)c1 [Example 424, 4-((1S,2S)-2-(6-(2,4-dioxo-1,2,3,4-tetrahydropyrimidin-5-yl)imidazo[1,2-b]pyridazin-8-yl)cyclopropyl)-3,5-difluorobenzonitrile] | 4.1 nM | 1.64 nM |
| O=c1[nH]cc(-c2cc([C@H]3C[C@@H]3c3ccc(C(F)F)cc3)c3nccn3n2)c(=O)[nH]1 [Example 418, 5-(8-((1S,2S)-2-(4-(difluoromethyl)phenyl)cyclopropyl)imidazo[1,2-b]pyridazin-6-yl)pyrimidine-2,4(1H,3H)-dione] | 4.71 nM | 0.96 nM |
| CC(C)n1ncc2ccc([C@H]3C[C@@H]3c3cc(-c4c[nH]c(=O)[nH]c4=O)nn4ccnc34)cc21 [Example 120, 5-(8-((1S,2S)-2-(1-isopropyl-1H-indazol-6-yl)cyclopropyl)imidazo[1,2-b]pyridazin-6-yl)pyrimidine-2,4(1H,3H)-dione] | 0.85 nM | 0.85 nM |
| O=c1[nH]cc(-c2cc(N3CC4CC4(C(F)(F)F)C3)c3nccn3n2)c(=O)[nH]1 (stereo not drawn) [Example 645, 5-(8-(1-(trifluoromethyl)-3-azabicyclo[3.1.0]hexan-3-yl)imidazo[1,2-b]pyridazin-6-yl)pyrimidine-2,4(1H,3H)-dione] | 79.6 nM | 49 nM |
| CC1(O)CCN(c2cc(-c3c[nH]c(=O)[nH]c3=O)nn3ccnc23)C1 (stereo not drawn) [Example 243, 5-(8-(3-hydroxy-3-methylpyrrolidin-1-yl)imidazo[1,2-b]pyridazin-6-yl)pyrimidine-2,4(1H,3H)-dione] | 56.1 nM | 22.2 nM |
| O=c1[nH]cc(-c2cc([C@H]3C[C@@H]3c3ccc(Cl)nc3)c3nccn3n2)c(=O)[nH]1 (racemic) [Example 568, 5-(8-((1S,2S)-2-(6-chloropyridin-3-yl)cyclopropyl)imidazo[1,2-b]pyridazin-6-yl)pyrimidine-2,4(1H,3H)-dione] | 8.1 nM | 2.84 nM |
| COC1CN(c2cc(-c3c[nH]c(=O)[nH]c3=O)nn3ccnc23)CC1(F)F (stereo not drawn) [Example 473, 5-(8-(3,3-difluoro-4-methoxypyrrolidin-1-yl)imidazo[1,2-b]pyridazin-6-yl)pyrimidine-2,4(1H,3H)-dione] | 18.3 nM | 5.76 nM |
| O=c1[nH]cc(-c2cc([C@H]3C[C@@H]3c3cc4c(cn3)cnn4CC(F)(F)F)c3nccn3n2)c(=O)[nH]1 (racemic) [Example 591, 5-(8-((1S,2S)-2-(1-(2,2,2-trifluoroethyl)-1H-pyrazolo[4,3-c]pyridin-6-yl)cyclopropyl)imidazo[1,2-b]pyridazin-6-yl)pyrimidine-2,4(1H,3H)-dione] | 0.17 nM | 0.72 nM |
| N#Cc1cc(F)c([C@H]2C[C@@H]2c2cc(-c3c[nH]c(=O)[nH]c3=O)nn3ncnc23)c(F)c1 [Example 428, 4-((1S,2S)-2-(6-(2,4-dioxo-1,2,3,4-tetrahydropyrimidin-5-yl)-[1,2,4]triazolo[1,5-b]pyridazin-8-yl)cyclopropyl)-3,5-difluorobenzonitrile] | 14.7 nM | 1.38 nM |
| O=c1[nH]cc(-c2cc(N3CCC4CCC3C4)c3nccn3n2)c(=O)[nH]1 (stereo not drawn) [Example 651, 5-(8-(2-azabicyclo[3.2.1]octan-2-yl)imidazo[1,2-b]pyridazin-6-yl)pyrimidine-2,4(1H,3H)-dione] | 480 nM | 129 nM |
| O=c1[nH]cc(-c2cc([C@H]3C[C@@H]3c3cc(C(F)(F)F)c4cccnc4c3)c3nccn3n2)c(=O)[nH]1 [Example 394, 5-(8-((1S,2S)-2-(5-(trifluoromethyl)quinolin-7-yl)cyclopropyl)imidazo[1,2-b]pyridazin-6-yl)pyrimidine-2,4(1H,3H)-dione] | > 250 nM | 5.94 nM |
| O=c1[nH]cc(-c2cc(NCCc3ccc(F)cc3)c3nccn3n2)c(=O)[nH]1 [Example 496, 5-(8-((4-fluorophenethyl)amino)imidazo[1,2-b]pyridazin-6-yl)pyrimidine-2,4(1H,3H)-dione] | 154 nM | 64 nM |
| O=c1[nH]cc(-c2cc(N3CC(F)(F)C4(CN(CC(F)(F)F)C4)C3)c3nccn3n2)c(=O)[nH]1 [Example 508, 5-(8-(8,8-difluoro-2-(2,2,2-trifluoroethyl)-2,6-diazaspiro[3.4]octan-6-yl)imidazo[1,2-b]pyridazin-6-yl)pyrimidine-2,4(1H,3H)-dione] | 29 nM | 15 nM |
| O=c1[nH]cc(-c2cc(N3CCC(C(F)(F)F)(C(F)(F)F)C3)c3nccn3n2)c(=O)[nH]1 [Example 353, 5-(8-(3,3-bis(trifluoromethyl)pyrrolidin-1-yl)imidazo[1,2-b]pyridazin-6-yl)pyrimidine-2,4(1H,3H)-dione] | 109 nM | 69.6 nM |
| N#CC1(F)CCN(c2cc(-c3c[nH]c(=O)[nH]c3=O)nn3ccnc23)C1 (stereo not drawn) [Example 195, 1-[6-(2,4-dioxo-1H-pyrimidin-5-yl)imidazo[1,2-b]pyridazin-8-yl]-3-fluoro-pyrrolidine-3-carbonitrile] | 218 nM | 62.9 nM |
